In PubChem BioAssay AID256 (DTP/NCI, 2004):
Values joined by “and” are separate entries in the source; they are usually repeats but may differ in a detail not shown here. Equal values may be shown once. Toxic doses and inconclusive results are not listed. The calls were made as follows: active = survival T/C of 150% or more; inactive = T/C below 125% in these data.

System: CD2F1 mice, L1210 leukemia ip, survival T/C
Assay: NCI In Vivo Anticancer Drug Screen. Data for tumor model L1210 Leukemia (intraperitoneal) in CD2F1 (CDF1) mice
Settings: higher = longer survival
In short: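 Tumor-bearing mice (transplanted tumor) were split into treated and vehicle control groups, and the measured endpoint of each treated group was divided by that of its vehicle controls.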

[1] = endpoint: mean survival time, dose: 100.0 mg/kg/injection, schedule: Q04DX002 (ip), vehicle: saline with Tween-80
[2] = endpoint: mean survival time, dose: 50.0 mg/kg/injection, schedule: Q01DX009 (ip), vehicle: saline with Tween-80
[3] = endpoint: mean survival time, dose: 100.0 mg/kg/injection, schedule: Q01DX009 (ip), vehicle: saline with Tween-80
[4] = endpoint: mean survival time, dose: 200.0 mg/kg/injection, schedule: Q01DX009 (ip), vehicle: saline with Tween-80
[5] = endpoint: mean survival time, dose: 400.0 mg/kg/injection, schedule: Q01DX009 (ip), vehicle: saline with Tween-80
[6] = endpoint: mean survival time, dose: 50.0 mg/kg/injection, schedule: Q04DX002 (ip), vehicle: saline with Tween-80
[7] = endpoint: mean survival time, dose: 25.0 mg/kg/injection, schedule: Q01DX009 (ip), vehicle: saline with Tween-80
[8] = endpoint: mean survival time, dose: 100.0 mg/kg/injection, schedule: Q04DX003 (ip), vehicle: saline with Tween-80
[9] = endpoint: mean survival time, dose: 200.0 mg/kg/injection, schedule: Q04DX003 (ip), vehicle: saline with Tween-80
[10] = endpoint: mean survival time, dose: 100.0 mg/kg/injection, schedule: Q01DX001 (ip), vehicle: saline with Tween-80
[11] = endpoint: mean survival time, dose: 200.0 mg/kg/injection, schedule: Q01DX001 (ip), vehicle: saline with Tween-80
[12] = endpoint: mean survival time, dose: 400.0 mg/kg/injection, schedule: Q01DX001 (ip), vehicle: saline with Tween-80
[13] = endpoint: mean survival time, dose: 6.25 mg/kg/injection, schedule: Q01DX009 (ip), vehicle: saline with Tween-80
[14] = endpoint: mean survival time, dose: 12.5 mg/kg/injection, schedule: Q01DX009 (ip), vehicle: saline with Tween-80
[15] = endpoint: mean survival time, dose: 400.0 mg/kg/injection, schedule: Q04DX003 (ip), vehicle: saline with Tween-80

Measured: T/C

CCCCCCCCCCCCCCCCCCNC(=O)Nc1ccc(C)cc1C
inactive: endpoint: mean survival time, dose: 100.0 mg/kg/injection, schedule: Q01DX009 (ip), vehicle: saline + alcohol 98 % of control | endpoint: mean survival time, dose: 100.0 mg/kg/injection, schedule: Q04DX003 (ip), vehicle: saline + alcohol 89 % of control | endpoint: mean survival time, dose: 200.0 mg/kg/injection, schedule: Q01DX009 (ip), vehicle: saline + alcohol 104 % of control | endpoint: mean survival time, dose: 200.0 mg/kg/injection, schedule: Q04DX003 (ip), vehicle: saline + alcohol 100 % of control | endpoint: mean survival time, dose: 400.0 mg/kg/injection, schedule: Q01DX009 (ip), vehicle: saline + alcohol 107 % of control | endpoint: mean survival time, dose: 400.0 mg/kg/injection, schedule: Q04DX003 (ip), vehicle: saline + alcohol 89 % of control

CC(C)OC(=O)Nc1ccccn1
inactive: [1] 100 % of control | endpoint: mean survival time, dose: 200.0 mg/kg/injection, schedule: Q04DX002 (ip), vehicle: saline with Tween-80 100 % of control | endpoint: mean survival time, dose: 400.0 mg/kg/injection, schedule: Q04DX002 (ip), vehicle: saline with Tween-80 104 % of control

COC(=O)c1cc([N+](=O)[O-])cc([N+](=O)[O-])c1Sc1ncnc2nc[nH]c12
inactive: endpoint: mean survival time, dose: 0.63 mg/kg/injection, schedule: Q01DX005 (ip), vehicle: other 100 % of control | endpoint: mean survival time, dose: 1.25 mg/kg/injection, schedule: Q01DX005 (ip), vehicle: other 100 % of control | endpoint: mean survival time, dose: 2.5 mg/kg/injection, schedule: Q01DX005 (ip), vehicle: other 107 % of control | endpoint: mean survival time, dose: 5.0 mg/kg/injection, schedule: Q01DX005 (ip), vehicle: other 112 % of control | endpoint: mean survival time, dose: 10.0 mg/kg/injection, schedule: Q01DX005 (ip), vehicle: other 112 % of control | endpoint: mean survival time, dose: 40.0 mg/kg/injection, schedule: Q01DX005 (ip), vehicle: other 95 % of control

O=c1oc(-c2ccc([N+](=O)[O-])cc2)nc2cc(Cl)ccc12
inactive: [2] 97 % of control | [3] 108 % of control | [4] 103 % of control

O=CNc1ccccc1
inactive: [3] 97 % of control | [4] 105 % of control | [5] 115 % of control

CCOC(=O)C1(C(=O)OCC)C2CC=CCC21 (centres undefined)
inactive: endpoint: mean survival time, dose: 50.0 mg/kg/injection, schedule: Q01DX009 (ip), vehicle: acetone 100 % of control | endpoint: mean survival time, dose: 100.0 mg/kg/injection, schedule: Q01DX009 (ip), vehicle: acetone 92 % of control | endpoint: mean survival time, dose: 200.0 mg/kg/injection, schedule: Q01DX009 (ip), vehicle: acetone 97 % of control

Cc1cc(Cl)ccc1NC(=O)SCc1ccc(Cl)cc1
inactive: [2] 95 % of control | [3] 100 % of control | [4] 103 % of control

N#C/C(=C/Cc1ccccc1)Nc1ccccc1
inactive: [3] 97 % of control | endpoint: mean survival time, dose: 100.0 mg/kg/injection, schedule: Q04DX003 (ip), vehicle: saline sonified 97 % of control | [4] 101 % of control | endpoint: mean survival time, dose: 200.0 mg/kg/injection, schedule: Q04DX003 (ip), vehicle: saline sonified 97 % of control | [5] 87 % of control | endpoint: mean survival time, dose: 400.0 mg/kg/injection, schedule: Q04DX003 (ip), vehicle: saline sonified 96 % of control

CCCCSP(=O)(CCl)SCCCC
inactive: endpoint: mean survival time, dose: 25.0 mg/kg/injection, schedule: Q04DX002 (ip), vehicle: saline with Tween-80 93 % of control | [6] 97 % of control | [1] 93 % of control

CCCCN(C)C(=O)Oc1cccc(NC(=O)OC)c1
inactive: [3] 94 % of control | [4] 100 % of control

COc1ccc(OC)c(/C=C(\C#N)c2ccc([N+](=O)[O-])cc2)c1
inactive: endpoint: mean survival time, dose: 16.5 mg/kg/injection, schedule: Q01DX009 (ip), vehicle: saline with Tween-80 87 % of control | [7] 87 % of control | [3] 90 % of control | [8] 91 % of control | [4] 86 % of control | [9] 101 % of control

CC1(C)Oc2ccccc2O1
inactive: [7] 106 % of control | [2] 102 % of control | [3] 93 % of control

Cc1ccc(C2OC2C(=O)c2ccccc2)cc1 (centres undefined)
inactive: [6] 95 % of control | [10] 94 % of control | [1] 91 % of control | [11] 92 % of control | [12] 94 % of control

O=Cc1c(O)c2ccccc2[nH]c1=O
inactive: [13] 101 % of control | [14] 103 % of control | [7] 103 % of control | [2] 112 % of control | [3] 106 % of control | endpoint: median survival time, dose: 12.0 mg/kg/injection, schedule: Q01DX009 (ip), vehicle: Klucel (hydroxypropylcellulose) (HPC) 98 % of control | endpoint: median survival time, dose: 25.0 mg/kg/injection, schedule: Q01DX009 (ip), vehicle: Klucel (hydroxypropylcellulose) (HPC) 105 % of control | endpoint: median survival time, dose: 50.0 mg/kg/injection, schedule: Q01DX009 (ip), vehicle: Klucel (hydroxypropylcellulose) (HPC) 113 % of control | endpoint: median survival time, dose: 100.0 mg/kg/injection, schedule: Q01DX009 (ip), vehicle: Klucel (hydroxypropylcellulose) (HPC) 104 % of control

COC1(OC)C(Cl)=C(Cl)C(Cl)=C1Cl
inactive: [13] 96 % of control | [14] 98 % of control | endpoint: mean survival time, dose: 12.5 mg/kg/injection, schedule: Q04DX003 (ip), vehicle: saline with Tween-80 111 % of control | [7] 96 % of control | endpoint: mean survival time, dose: 25.0 mg/kg/injection, schedule: Q04DX003 (ip), vehicle: saline with Tween-80 111 % of control

Nc1ccc2scnc2c1
inactive: [8] 108 % of control | [9] 96 % of control | [15] 101 % of control

COc1ccc(/C=C/C(=O)O)cc1
inactive: [10] 102 % of control | [11] 96 % of control | [12] 97 % of control

O=c1[nH]c2ccccc2[nH]1
inactive: [8] 100 % of control | [9] 95 % of control | [15] 103 % of control

NCCN1CCc2ccccc2C1
inactive: endpoint: mean survival time, dose: 6.25 mg/kg/injection, schedule: Q04DX003 (ip), vehicle: saline 101 % of control | endpoint: mean survival time, dose: 12.5 mg/kg/injection, schedule: Q04DX003 (ip), vehicle: saline 106 % of control | endpoint: mean survival time, dose: 25.0 mg/kg/injection, schedule: Q04DX003 (ip), vehicle: saline 101 % of control

COc1cc2c(c(OC)c1OC)-c1ccc(SC)c(=O)cc1[C@@H](NC(C)=O)CC2
inactive: endpoint: mean survival time, dose: 0.2 mg/kg/injection, schedule: Q01DX009 (ip), vehicle: Klucel (hydroxypropylcellulose) (HPC) 86 % of control | endpoint: mean survival time, dose: 0.75 mg/kg/injection, schedule: Q04DX002 (ip), vehicle: Klucel (hydroxypropylcellulose) (HPC) 121 % of control | endpoint: mean survival time, dose: 3.0 mg/kg/injection, schedule: Q04DX002 (ip), vehicle: Klucel (hydroxypropylcellulose) (HPC) 118 % of control and 95 % of control | endpoint: mean survival time, dose: 6.0 mg/kg/injection, schedule: Q04DX002 (ip), vehicle: Klucel (hydroxypropylcellulose) (HPC) 97 % of control

CC1=CCCC1
inactive: endpoint: mean survival time, dose: 100.0 mg/kg/injection, schedule: Q04DX003 (ip), vehicle: saline 98 % of control | endpoint: mean survival time, dose: 200.0 mg/kg/injection, schedule: Q04DX003 (ip), vehicle: saline 101 % of control | endpoint: mean survival time, dose: 400.0 mg/kg/injection, schedule: Q04DX003 (ip), vehicle: saline 95 % of control

CN(C)CCC(=O)c1ccc([N+](=O)[O-])cc1
inactive: endpoint: mean survival time, dose: 1.25 mg/kg/injection, schedule: Q01DX009 (ip), vehicle: saline with Tween-80 102 % of control | endpoint: mean survival time, dose: 2.5 mg/kg/injection, schedule: Q01DX009 (ip), vehicle: saline with Tween-80 96 % of control | endpoint: mean survival time, dose: 5.0 mg/kg/injection, schedule: Q01DX009 (ip), vehicle: saline with Tween-80 95 % of control | endpoint: mean survival time, dose: 5.0 mg/kg/injection, schedule: Q04DX003 (ip), vehicle: saline with Tween-80 100 % of control
